From US10201543B2, “Therapeutically active compounds and their methods of use” (Agios Pharmaceuticals, Inc., priority 2015, dated 2019)

What was measured:
[1] = tested on: CYP1A2; assay: CYP induction, CYP1A2; type: in vitro ADME
[2] = tested on: human CYP3A4; assay: CYP induction, CYP3A4
[3] = tested on: CYP2B6; assay: CYP induction, CYP2B6
[4] = tested on: TF-1/IDH2 (R140Q) mutant cells; assay: 2-HG levels in TF-1/IDH2 (R140Q) mutant cells; type: cell-based
Protocol: TF-1/IDH2 (R140Q) mutant cells are treated in vitro for 7 days with vehicle (dimethylsulfoxide; […].

[5] = tested on: TF-1 IDH2 (R140Q) cells; assay: Vimentin expression in TF-1 IDH2 (R140Q) cells; type: cell-based; conditions: 7 days; 2-HG levels below 1 mM, dose >200 nM
[6] = tested on: TF-1 IDH2 (R140Q) cells; assay: GM-CSF-independent growth of TF-1 IDH2 (R140Q) cells; type: cell-based; conditions: 1 μM, 7 days
[7] = tested on: TF-1 IDH2 (R140Q) mutant cells; assay: EPO-induced differentiation in TF-1 IDH2 (R140Q) mutant cells; type: cell-based; conditions: when 2-HG levels fall below 1 mM
[8] = tested on: primary human IDH2 (R140Q) mutant AML cells; assay: Ex vivo treatment of primary human AML blast cells; type: cell-based; conditions: for percentage of blast cells: from 90%, 500, 1000, 5000 nM
From the text: Cells are counted at Days 3, 6, 9, and 13 and normalized to DMSO control.

[9] = tested on: AMNI7577-P2 (HuKemia model); assay: Survival in mutant positive AML mouse model (AMNI7577-P2, NOD/SCID mice); type: in vivo
[10] = tested on: U87MG IDH2 (R140Q) tumor; assay: PK/PD in U87MG IDH2 (R140Q) mouse xenograft model; conditions: 3 consecutive doses of 25 mg/kg or above, twice daily, 12 hour interval

| SMILES | induction of CYP1A2 [1] | induction of human CYP3A4 [2] | induction of CYP2B6 [3] | intracellular levels of 2-HG ([4]; 5 μM, 7 days, 15.5 mM with DMSO) [mM] | inhibition at 1 µM ([4]; 168 h, read-out: 2-HG production inhibited) [%] | IC90 ([4]; 168 h, read-out: inhibitory concentration, 90% (IC90) for 2-HG inhibition) [nM] | IC50 ([4]; 168 h, read-out: intracellular IC50 for 2-HG inhibition) [nM] | vimentin expression induced by IDH2 (R140Q) [5] | GM-CSF independent growth [6] | EPO-induced expression of hemoglobin gamma 1/2 and KLF-1 [7] | population of more differentiated cells (metamyelocytes) ([8]; 9 days ex vivo) | percentage of blast cells ([8]; Day 6) [%] | percentage of blast cells ([8]; Day 9) [%] | intracellular 2-HG ([8]; ex vivo treatment) | Survival at study termination ([9]; 45 mg/kg PO/BID, Day 48-84) | survival in comparison to cytarabine ([9]; 5, 15, 45 mg/kg) | leukemia burden and differentiation ([9]; all treated animals) | tumor 2-HG levels [10] |
| --- | --- | --- | --- | --- | --- | --- | --- | --- | --- | --- | --- | --- | --- | --- | --- | --- | --- | --- |
| Nc1nc(Nc2ccnc(C(F)(F)F)c2)nc(-c2cccc(C(F)(F)F)n2)n1 [compound 2, 6-(6-(trifluoromethyl)pyridin-2-yl)-N2-(2-(trifluoromethyl)pyridin-4-yl)-1,3,5-triazine-2,4-diamine] | not observed | weak inducers | not observed |  |  |  |  |  |  |  |  |  |  |  |  |  |  |  |
| CC(C)(O)CNc1nc(Nc2ccnc(C(F)(F)F)c2)nc(-c2cccc(C(F)(F)F)n2)n1 [compound 3, 2-Methyl-1-[(4-[6-(trifluoromethyl)pyridin-2-yl]-6-{[2-(trifluoromethyl)pyridin-4-yl]amino}-1,3,5-triazin-2-yl)amino]propan-2-ol] |  |  |  | 0.08 | > 99 | 160 | 16 | reduced to baseline levels | reversed | restores | clear increase | 55 | 40 | decrease | all 9 mice survived | dose dependent survival advantage | dose dependent decrease in leukemia and evidence of normal differentiation | decrease to baseline |
